In EP0616804A1 (priority 1993, dated 1994):
Values joined by “and” are separate entries in the source; they are usually repeats but may differ in a detail not shown here. Equal entries are not always repeated. Where two headings read alike, the source gives them in different places.

Key:
[1] = Light/dark exploration test; format: in vivo, mouse; conditions: 10 mg/kg ip, total hours (32) referred to all animals, 8 animals, 4 hours; for Dark section: controls 14; for Lit section: controls 18
Procedure: The test is performed with a cage subdivided into two sections, a dark and a lit one.
Evidence was provided that the mice treated with adequate doses of anxiolytic drugs, e.g. Diazepam or Buspirone, spend a longer time in the lit section than controls.
The anxiolytic activity, if any, of the molecules can be evaluated on the basis of the time spent in the lit section.
The total duration of the test for each group of 8 animals was 4 hours.
The data are expressed as total hours (32) referred to all animals.

[2] = rats, ip; antidepressants and anxiolytics known to the prior art; cited from earlier work
[3] = Despair test (Porsolt behavioural test, duration of immobility); format: in vivo, Male Swiss mice (CD strain, Charles River); conditions: mice; for <%: decrease of immobility vs dose 0; for Duration of immobility: one hour before testing
Procedure: This behavioural test developed by R.D. Porsolt et al. (Arch. int. Pharmacodyn. 229, 327-336, 1977) is commonly used to evaluate the activity of antidepressant agents.
Male Swiss mice (CD strain, Charles River) weighing 30 g were used and assigned at random to the various treatment groups.
The mice were plunged individually into a Plexiglas cylinder of 25 cm in height and 9 cm in diameter, filled with water at 24°C, for a 6 min latency up to 6 cm from the upper lip.
The duration of the test was 6 minutes. The time during which the animal kept floating passively was measured starting from the 2nd minute (duration of immobility).
One hour before testing, sodium gamma-hydroxybutyrate (NaGHB) as an acqueous suspension additioned of non-ionic surfactant Tween was administered by i.p. injection in a volume of 10 ml/kg, or per os.
Blind tests were performed. The statistical analysis of the data was performed, whenever possible, by Student's t-test, otherwise by Mann Whitney's non-parametric test.

[4] = parameters: species or system Male Sprague-Dawley rats; conditions: rat, in vivo
Toxicity (LD50), Table 6 = conditions: rat, in vivo, rats, read-out: LD₅₀
Source text: The toxicity of gamma-hydroxybutyrate sodium salt to rats compared with antidepressants and anxiolytics known to the prior art is shown in Table 6.

## O=C1CC2(CCCC2)CC(=O)N1CCCCN1CCN(c2ncccn2)CC1 [Buspirone]
[1]
  Dark section: 10 total hours
  Lit section: 22 total hours
[2]
  LD₅₀: 136 mg/kg

## O=C([O-])CCCO.[Na+] [NaGHB, sodium gamma-hydroxybutyrate]
[3]; ip, 5 mg/kg
  <%: 15%
  Duration of immobility: 179 ± 24 s
[3]; ip, 10 mg/kg
  <%: 27%
  Duration of immobility: 153 ± 19 s
[3]; ip, 20 mg/kg
  <%: 36%
  Duration of immobility: 134 ± 26 s
[3]; ip, 40 mg/kg
  <%: 43%
  Duration of immobility: 120 ± 12 s
[3]; per os, 20 mg/kg
  <%: 17%
  Duration of immobility: 189 ± 23 s
[3]; per os, 50 mg/kg
  <%: 40%
  Duration of immobility: 137 ± 16 s
[3]; per os, 100 mg/kg
  <%: 42%
  Duration of immobility: 133 ± 31 s
[4]
  mean reaction time: decreased mean reaction time
  number of attempts to escape: increased number of attempts to escape
[4]; 10 mg/kg
  difference between the group of controls and the CNaGHB group: no significant difference
[4]; ip, 10 mg/kg
  Mean reaction time, mean ± S.E.: 5.76±0.34 and 5.4±1.0
  No. of escape failures, mean ± S.E.: 21.3±1.1 and 23.6±2.6
[1]
  Dark section: 9 total hours
  Lit section: 23 total hours
Toxicity (LD50), Table 6; po, os
  LD50: 12400 mg/kg
Toxicity (LD50), Table 6; ip
  LD50: 3280 mg/kg

## CN1C(=O)CN=C(c2ccccc2)c2cc(Cl)ccc21 [Diazepam]
[1]
  Dark section: 7 total hours
  Lit section: 25 total hours
